These results are taken from patent publication US5242945A, “Tetronic and thiotetronic acid derivatives as phospholipase A2 inhibitors” (American Home Products Corporation, priority 1991, dated 1993).

Assay [1] concerns lipoxygenase and/or cyclooxygenase pathways of arachidonic acid metabolism. The assay can be described thus: in vivo murine zymosan peritonitis assay. The arrangement: species or system mouse (CD-1). The conditions noted are these: p.o. How it is done:
The compounds of the invention are evaluated for their ability to inhibit the lipoxygenase and/or cyclooxygenase pathways of arachidonic acid metabolism in the in vivo murine zymosan peritonitis assay.
Male CD-1 mice (8 weeks old) are placed in plastic boxes in groups of six. Animals are injected with 1 mL i.p. of either 1% zymosan in pyrogen free 0.9% saline or saline (unstimulated control). Compounds are dosed orally 1 hour prior to zymosan injection. Twenty minutes after zymosan injection, the mice are asphyxiated by CO2 inhalation and the peritoneal cavity is lavaged with 2 mL ice cold Hanks Balanced Salt Solution (HBSS) without CaCl2, MgSO4. 7H2 O and MgCl2.6H2 O. Peritoneal lavage fluid from each mouse is removed by syringe and placed in 5 mL plastic test tubes put on ice and volume is noted. Preparation of samples for evaluation by ELISA is as follows: Samples are centrifuged at 800 xg for 15 minutes; 1 mL of the supernatant is added to 8 mL ice cold methanol and kept at -70° C. overnight to precipitate protein; and samples are then centrifuged at 800 xg for 15 minutes, followed by a drying procedure in a Savant speed vac concentrator. The samples are reconstituted with 1 mL ice cold ELISA buffer and stored at -70° C. until assayed. The assay for eicosanoids (LTC4 and 6-keto-PGF1α) is performed according to conventional ELISA procedures.
Compounds to be tested orally are suspended in 0.5% Tween 80. Compounds to be tested intraperitoneally are suspended in 0.5% methylcellulose in 0.9% saline.
The total metabolite level in lavage fluid/mouse is calculated and the significance is determined by a one-way analysis of variance with LSD comparisons to control (p≤0.05). Drug effects are expressed as a percent change from control values.

In assay [2] the target is T1, human synovial fluid PLA2 (Homo sapiens, UniProt P14555).
T1 construct: Purified human synovial fluid; from tissue; host or cells: human synovial fluid
T1 sequence (P14555 21-144): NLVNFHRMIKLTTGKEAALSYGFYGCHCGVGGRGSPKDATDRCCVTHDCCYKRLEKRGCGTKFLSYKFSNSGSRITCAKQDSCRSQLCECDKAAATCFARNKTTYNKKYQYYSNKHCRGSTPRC
The assay can be described thus: in vitro isolated phospholipase A2 assay, human synovial fluid PLA2. In kind it is biochemical. The procedure, abridged: (§1)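 PLA2 from semipurified human platelet acid extract or purified human synovial fluid, preincubated 30 min at room temperature with compound. ³H-arachidonate-labelled E. coli substrate then added in Tris-HCl pH 7.5, with enzyme giving about 12% hydrolysis. Reaction ran 10 min at 37° C; released arachidonic acid recovered on NH2 columns and measured by β-counting.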

The test system of assay [3] is carrageenan paw edema. The assay can be described thus: rat carrageenan paw edema assay. Format: in vivo, rat (Sprague-Dawley). Particulars: 50 mg/kg peroral. How it is done:
The compounds of the invention are further tested in the rat carrageenan paw edema assay to determine their ability to inhibit the acute inflammatory response.
140-180 g Male Sprague-Dawley rats, in groups of 6 animals are injected subcutaneously in the right paw with 0.1 mL of 1% carrageenan at zero time. Mercury plethysmographic readings (mL) of the paw are made at zero time and 3 hours later. Test compounds are suspended or dissolved in 0.5% methylcellulose and given perorally 1 hour prior to carrageenan administration.
The increase in paw volume (edema in mL) produced by the carrageenan is measured. Paw edema is calculated (3 hour volume minus zero time volume), and percent inhibition of edema is determined. Unpaired Student's t-test is used to determine statistical significance.

Assay [4] concerns the target T2, human platelet PLA2 (Homo sapiens, UniProt P14555).
T2 construct: platelet acid extract PLA2; from tissue; host or cells: human platelets, semipurified acid extract
T2 sequence (P14555 21-144): T1 sequence (P14555 21-144)
Description: in vitro isolated phospholipase A2 assay, human platelet PLA2. Format: biochemical. Particulars: at 10 μM; + values given without explanation; read-out: % Inhibition HP (human platelet). The procedure, abridged:
as §1

As to `CC(C)Cc1ccc(C(C)C(=O)O)cc1` (centres unmarked) [Ibuprofen], in assay [1], the “ED50 LTC4” value was “Not Active”.

`COc1ccc(/C=C/C(=O)C2=C(O)COC2=O)cc1` [Example 6, (E)-4-Hydroxy-3-(3-(4-methoxyphenyl)-1-oxo-2-propenyl)-2 (5H)-furanone]: in assay [2] (Table IV, read-out: IC50 HSF (human synovial fluid)), the IC50 stood at 8.7 µM. In addition, the inhibition at 10 µM in assay [2] (at 10 μM, + values given without explanation, read-out: % Inhibition HSF (human synovial fluid)) was found to be 59%; in assay [4] it was 0%. Further, the “% Inhibition” value in assay [3] was 31%.

As a reminder, the IC50 is the point on the concentration scale where inhibition reaches its midpoint. Usually inhibition stands for the drop in the measured response relative to a control, in per cent. Broadly, the % Inhibition is the relative decrease from the control value, in per cent.
